Measurements reported in ChEMBL document CHEMBL1132159, “[3H]Azidodantrolene: synthesis and use in identification of a putative skeletal muscle dantrolene binding site in sarcoplasmic reticulum” (J Med Chem, 1999).
Values belong to the molecule of their own block, whether it stands above or below them.

Experiments:
[1] = Binding affinity against porcine sarcoplasmic reticulum
[2] = The compound was tested for binding affinity in the absence of beta, gamma- methyleneadenosine 5'-triphosphate(AMP-PCP) in porcine sarcoplasmic reticulum
[3] = The compound was tested for binding affinity in a buffer containing 500 uM-3 mM beta,gamma-methyleneadenosine 5'-triphosphate(AMP-PCP) in porcine sarcoplasmic reticulum
[4] = The compound was tested for binding affinity against porcine sarcoplasmic reticulum(SR) membrane
[5] = The compound was tested for binding affinity against porcine sarcoplasmic reticulum(SR) membrane in the absence or presence of azumolene
[6] = The compound was tested for binding affinity against porcine sarcoplasmic reticulum(SR) membrane in the absence or presence of dantrolene from porcine sarcoplasmic reticulum
[7] = The compound was tested for binding affinity against porcine sarcoplasmic reticulum
[8] = The compound was tested for binding affinity against porcine sarcoplasmic reticulum(SR) membrane in the absence or presence of atropine

Kd [1]: 300 nM
SMILES: O=C1CN(/N=C/c2ccc(-c3ccc([N+](=O)[O-])cc3)o2)C(=O)N1 [DANTROLENE SODIUM]

Kd [2]: 275 nM
Kd [3]: 210 nM
Ki [4]: 1500 nM
SMILES: [3H]/C(=N\N1CC(=O)[N-]C1=O)c1ccc(-c2ccc([N+](=O)[O-])cc2)o1.[Na+]

Ki [5]: 100000 nM
Ki [6]: 20000 nM
Ki [7]: 175 nM
Ki [8]: 100000 nM
SMILES: [3H]/C(=N\N1CC(=O)[N-]C1=O)c1ccc(-c2ccc(N=[N+]=[N-])cc2)o1.[Na+] [[3H]-AZIDODANTROLINE]
